PubChem BioAssay AID2060336 (Molecular Pharmacology Branch, DTP, NCI, 2025)

Tested on: 958767-090-R-J1-PDC spheroid growth
Assay: Anticancer human tumor 958767-090-R-J1-PDC patient-derived head and neck squamous carcinoma cell line growth inhibition [IpAb]
Details: spheroids with HUVEC and MSC; for IC50: curve of first compound; for viability, T/C: stronger effect = lower value
Text: Combinatorial screen of targeted agents with ipatasertib and abemaciclib in multi-cell type tumor spheroids
A high-throughput screen of multi-cell type tumor spheroids was designed to identify active combinations of targeted small molecules and ipatasertib or abemaciclib. Complex spheroids include a stromal component modeled by human endothelial cells (HUVEC) and fibroblasts modeled by human mesenchymal stem cells (MSCs). The concentration ranges selected for each drug and investigational agent were based upon clinically achievable concentrations if the clinical Cmax of the agent was known.
Compounds. The drugs and investigational agents: ipatasertib (NSC767898), abemaciclib(NSC768073), selumetinib (NSC741078), trametinib (758246), adavosertib (NSC754352), everolimus (NSC733504), sapanisertib (NSC764658), vemurafenib (NSC761431), venetoclax (NSC766270), copanlisib (NSC809693), apelisib (NSC765974), palbociblib (NSC758247), vemurafenib (NSC761431), dabrafenib (NSC764134), ravoxertinib (NSC781343), BMS-387032 (NSC767048), sotorasib (NSC818433), talazoparib (NSC767125) and afursertib (NSC778305), were obtained from the National Cancer Institute (NCI) Developmental Therapeutics Program Chemical Repository. The FDA-approved anticancer drug set is available from the NCI Developmental Therapeutics Program. […] The stock solutions were prepared in dimethyl sulfoxide (DMSO, Sigma-Aldrich, St. Louis, MO, cat. D2650) at 800-fold the tested concentration and stored at -70 degrees C prior to their use. All drugs and investigational agents were tested over a range starting from a high concentration at or near the clinical Cmax and decreasing in half-log increments. If the clinical Cmax for an agent had not been determined, the highest concentration tested was 10 microM.
NCI60 Cell Culture. NCI60 cell lines were obtained from the NCI Developmental Therapeutics Program Tumor Repository. For each lot of cells, the Repository performed Applied Biosystems AmpFLSTR Identifiler testing with PCR amplification to confirm consistency with the published Identifier STR profile for each cell line. Cells were kept in continuous culture for no more than 20 passages. The optimal seeding densities for each of the cell lines at each time point assessed were determined prior to performing the concentration response studies. Briefly, the NCI60 human tumor lines were grown as monolayers in RPMI 1640 medium supplemented with 10% FBS and 2 mmol/L L-glutamine.
An additional 9 lines were from the NCI60 cell line panel including MDA-MB-231 breast carcinoma, MDA-MB-468 breast carcinoma, MCF7 breast carcinoma, Hs578T breast carcinoma, MALME-3M melanoma, SK-MEL-2 melanoma, SK-OV-3 ovarian carcinoma, DU-145 prostate carcinoma, PC-3 prostate carcinoma, all cell lines along with major genetic alterations are listed on Table 2. Pooled donor human umbilical vein endothelial cells (HUVEC, Lonza, cat. CC-2519) and human mesenchymal stem cells (hMSC, Lonza, cat. PT-2501) were purchased from Lonza (Walkersville, MD).
PDMR cell lines were grown in complete medium (DC medium): Dulbecco's modified Eagle's medium (DMEM)/F12 supplemented with 5% fetal bovine serum (FBS), 2 mM L-glutamine, 100 U/mL penicillin and 100 µg/ml streptomycin, 0.4 µg/ml hydrocortisone, 10 ng/ml epidermal growth factor (EGF) recombinant human protein, 24 µg/mL adenine, and 0.1 mg/mL primocin. During culture from frozen stock vials, PDMR cells were cultured in the same medium containing 10 µM Y-27632 (see Table 3). The PDCs were cultured in complete DMEM/F12 media without 10 microM Y-27632 dihydrochloride for at least two passages prior to the screen. The pooled donor HUVEC and hMSC were cultured in endothelial cell growth medium 2 (PromoCell, Heidelberg, Germany, cat. C-22011) and mesenchymal stem cell growth medium 2 (PromoCell, cat. C-28009), respectively. For all experiments, HUVEC and hMSC were used at passages </=5.
[…]

[1] = second compound 0.1 µM, first compound 0.0316 µM
[2] = second compound 0.1 µM, first compound 0.1 µM
[3] = second compound 0.316 µM, first compound 0.0316 µM
[4] = second compound 0.316 µM, first compound 0.1 µM
[5] = second compound 1 µM, first compound 0.0316 µM
[6] = second compound 1 µM, first compound 0.1 µM
[7] = second compound 3.16 µM, first compound 0.0316 µM
[8] = second compound 3.16 µM, first compound 0.1 µM
[9] = second compound 10 µM, first compound 0.0316 µM
[10] = second compound 10 µM, first compound 0.1 µM
[11] = second compound 0.1 µM, first compound 0.316 µM
[12] = second compound 0.1 µM, first compound 1 µM
[13] = second compound 0.1 µM, first compound 3.16 µM
[14] = second compound 0.1 µM, first compound 10 µM
[15] = second compound 0.316 µM, first compound 0.316 µM
[16] = second compound 0.316 µM, first compound 1 µM
[17] = second compound 0.316 µM, first compound 3.16 µM
[18] = second compound 0.316 µM, first compound 10 µM
[19] = second compound 1 µM, first compound 0.316 µM
[20] = second compound 1 µM, first compound 1 µM
[21] = second compound 1 µM, first compound 3.16 µM
[22] = second compound 1 µM, first compound 10 µM
[23] = second compound 3.16 µM, first compound 0.316 µM
[24] = second compound 3.16 µM, first compound 1 µM
[25] = second compound 3.16 µM, first compound 3.16 µM
[26] = second compound 3.16 µM, first compound 10 µM
[27] = second compound 10 µM, first compound 0.316 µM
[28] = second compound 10 µM, first compound 1 µM
[29] = second compound 10 µM, first compound 3.16 µM
[30] = second compound 10 µM, first compound 10 µM
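Note: spheroids exposed to agents for 7 days.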
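Throughout, for viability, T/C: 100% = DMSO vehicle control wells.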

Row | SMILES | IC50 (second compound 0.1 µM) [nM] | IC50 (second compound 0.316 µM) [nM] | IC50 (second compound 1 µM) [nM] | IC50 (second compound 3.16 µM) [nM] | IC50 (second compound 10 µM) [nM] | viability, T/C [1] [%] | viability, T/C [2] [%] | viability, T/C [3] [%] | viability, T/C [4] [%] | viability, T/C [5] [%] | viability, T/C [6] [%] | viability, T/C [7] [%] | viability, T/C [8] [%] | viability, T/C [9] [%] | viability, T/C [10] [%] | viability, T/C [11] [%] | viability, T/C [12] [%] | viability, T/C [13] [%] | viability, T/C [14] [%] | viability, T/C [15] [%] | further results
1 | CC(C)n1nc(-c2ccc3oc(N)nc3c2)c2c(N)ncnc21 + CC(C)NCC(C(=O)N1CCN(c2ncnc3c2C(C)CC3O)CC1)c1ccc(Cl)cc1 | 9.11 | 1.82 | 1.13 | 0.83 | < 0.316 | 32.8 | 32.6 | 37.4 | 33.4 | 29.1 | 25 | 21.1 | 17.2 | 13.6 | 13 | – | – | – | – | – | viability, T/C (second compound 0.1 µM, first compound 0.000316 µM): 78.4%; viability, T/C (second compound 0.1 µM, first compound 0.001 µM): 72.8%; viability, T/C (second compound 0.1 µM, first compound 0.00316 µM): 53.6%; viability, T/C (second compound 0.1 µM, first compound 0.01 µM): 57.9%; viability, T/C (second compound 0.316 µM, first compound 0.000316 µM): 72.4%; viability, T/C (second compound 0.316 µM, first compound 0.001 µM): 58.5%; viability, T/C (second compound 0.316 µM, first compound 0.00316 µM): 43.5%; viability, T/C (second compound 0.316 µM, first compound 0.01 µM): 29.8%; viability, T/C (second compound 1 µM, first compound 0.000316 µM): 59.1%; viability, T/C (second compound 1 µM, first compound 0.001 µM): 51.9%; viability, T/C (second compound 1 µM, first compound 0.00316 µM): 40.7%; viability, T/C (second compound 1 µM, first compound 0.01 µM): 34%; viability, T/C (second compound 3.16 µM, first compound 0.000316 µM): 61.4%; viability, T/C (second compound 3.16 µM, first compound 0.001 µM): 47.2%; viability, T/C (second compound 3.16 µM, first compound 0.00316 µM): 37.2%; viability, T/C (second compound 3.16 µM, first compound 0.01 µM): 26%; viability, T/C (second compound 10 µM, first compound 0.000316 µM): 47.4%; viability, T/C (second compound 10 µM, first compound 0.001 µM): 42.5%; viability, T/C (second compound 10 µM, first compound 0.00316 µM): 34.6%; viability, T/C (second compound 10 µM, first compound 0.01 µM): 17%
2 | CC1(C)CCC(CN2CCN(c3ccc(C(=O)NS(=O)(=O)c4ccc(NCC5CCOCC5)c([N+](=O)[O-])c4)c(Oc4cnc5[nH]ccc5c4)c3)CC2)=C(c2ccc(Cl)cc2)C1 + CC(C)NCC(C(=O)N1CCN(c2ncnc3c2C(C)CC3O)CC1)c1ccc(Cl)cc1 | 5100 | 3390 | < 31.6 | < 31.6 | < 31.6 | 78.3 | 66.5 | 60.8 | 54.9 | 45.1 | 47.5 | 37.2 | 35.3 | 34.3 | 27 | 62.5 | 87.9 | 103 | 8.08 | 44.4 | viability, T/C [16]: 44.4%; viability, T/C [17]: 60.4%; viability, T/C [18]: 4.07%; viability, T/C [19]: 40.8%; viability, T/C [20]: 36%; viability, T/C [21]: 38.2%; viability, T/C [22]: 2.04%; viability, T/C [23]: 35.6%; viability, T/C [24]: 29.3%; viability, T/C [25]: 37.1%; viability, T/C [26]: 2.03%; viability, T/C [27]: 24.2%; viability, T/C [28]: 28.8%; viability, T/C [29]: 30.7%; viability, T/C [30]: 0.98%
3 | CCCS(=O)(=O)Nc1ccc(F)c(C(=O)c2c[nH]c3ncc(-c4ccc(Cl)cc4)cc23)c1F + CC(C)NCC(C(=O)N1CCN(c2ncnc3c2C(C)CC3O)CC1)c1ccc(Cl)cc1 | > 10000 | 9060 | 5370 | 3950 | < 31.6 | 93.3 | 89.6 | 67.9 | 78.2 | 68.4 | 61.2 | 59.6 | 56.9 | 46.1 | 50.3 | 94.7 | 95.9 | 86.9 | 73.9 | 74.1 | viability, T/C [16]: 59.6%; viability, T/C [17]: 72.5%; viability, T/C [18]: 48.2%; viability, T/C [19]: 59.8%; viability, T/C [20]: 60.2%; viability, T/C [21]: 60.8%; viability, T/C [22]: 37.7%; viability, T/C [23]: 51%; viability, T/C [24]: 51.7%; viability, T/C [25]: 54.4%; viability, T/C [26]: 32.7%; viability, T/C [27]: 54.9%; viability, T/C [28]: 42.3%; viability, T/C [29]: 40.8%; viability, T/C [30]: 14.6%
